From patent US20080207632A1, “PROTEIN KINASE INHIBITORS” (SUPERGEN, INC., priority 2006, published 2008) come the findings set out here.

Usually pIC50 stands for the IC50 on a negative log10 scale, so that one unit is a factor of ten.

Data set [1] has as its system MiaPaCa-2 (pancreas). As to the kind of experiment: in vitro cytotoxicity assay (Cell-Titer-Glo), MiaPaCa-2. The format is cell-based. The following applies: Homo sapiens, MIA PaCa-2; Table 10; 96 hours; read-out: IC50 MiaPaCa-2 (inhibit cell growth to 50% of untreated).
Data set [2] concerns the target T1, Axl kinase (Homo sapiens, UniProt P30530).
T1 construct: purchased BPS Bioscience Inc, San Diego Calif
As to the kind of experiment: Axl kinase inhibition assay (Kinase-Glo). The format is biochemical. The following applies: 3 μM ATP. As to the method:
One illustrative manner in which Axl kinase activity can be determined is by quantifying the phosphorylation of a known Axl substrate in an in vitro assay. In this assay kinase activity is determined by quantifying the amount of ATP remaining in solution following the kinase reaction by measuring the relative light units (RLU) produced by luciferase using a luminometer. Percent activity was determined for individual compounds by comparing luminometer readings of drug-treated reactions to controls containing no drug (RLUNO Inhib) and no […] enzyme (RLUNO Kinase) in the following equation: […]
In a 50 μl reaction, 200 ng/μl of Axl kinase (BPS Bioscience Inc, San Diego Calif.) was incubated at 30° C. for two hours with shaking (360 rpm) with 10 μg/ml Poly (Glu:Tyr) substrate (BPS Bioscience Inc, Calif.), 3 μM ATP. (Invitrogen, Carlsbad, Calif.) and kinase reaction buffer (40 mM MOPS, 75 mM MgCl2 and 0.1 mM EDTA). The value of 3 μM ATP was determined to be the Km (concentration at which the enzyme is working at 50% maximum velocity) for the amount of enzyme used in this assay. […] Kinase activity is determined by quantifying the amount of ATP remaining in solution following the kinase reaction by measuring the relative light units (RLU) produced by luciferase using a luminometer (Thermo Electron Corporation, Vantaa, Finland).
Background: Kinase-Glo measures the ATP left after a reaction by luminescence.

The test system of data set [3] is HT-29 human colon cancer cells. The data set is described as follows: HT-29 xenograft study in mice (Example 57). The format is in vivo. To be noted: 5 mg/kg IP, QDx5 for three weeks. As to the method:
In order to evaluate the effectiveness of compound 2-5 against tumor cells in a living system, a xenograft study was performed in mice. 1×10^7 HT-29 human colon cancer cells were injected subcutaneously into Nu/Nu athymic nude mice (Charles River Laboratories, Wilmington, Mass.). Tumor volume was measured according to the formula ((Width)^2*Length)/2. Tumors were allowed to grow to approximately 200 mm^3 in volume (Day 0), at which point mice were randomized to three groups. Eight mice were grouped to receive SGI-1097 as treatment, and two groups of eight would receive vehicle alone as a negative control. The SGI-1097 compound was formulated in the following vehicle: 10% EtOH; 30% PEG 300; 60% solution of 300 mg/ml 2-Hydroxypropyl-beta-cyclodextrin in water.
In the treatment group, each animal received 5 mg/kg of compound 2-5 in the aforementioned vehicle at a volume of 100 μl, dosed IP. The dosing schedule was QDx5 for three weeks. […]
Another negative control group was dosed PO with corn oil on the same dosing schedule. The tumor volumes for both the treated and untreated groups were measured twice a week for the three week dosing period, and for one week after the dosing period.

pIC50: −log10 of the molar value.

T1 sequence (P30530 26-894): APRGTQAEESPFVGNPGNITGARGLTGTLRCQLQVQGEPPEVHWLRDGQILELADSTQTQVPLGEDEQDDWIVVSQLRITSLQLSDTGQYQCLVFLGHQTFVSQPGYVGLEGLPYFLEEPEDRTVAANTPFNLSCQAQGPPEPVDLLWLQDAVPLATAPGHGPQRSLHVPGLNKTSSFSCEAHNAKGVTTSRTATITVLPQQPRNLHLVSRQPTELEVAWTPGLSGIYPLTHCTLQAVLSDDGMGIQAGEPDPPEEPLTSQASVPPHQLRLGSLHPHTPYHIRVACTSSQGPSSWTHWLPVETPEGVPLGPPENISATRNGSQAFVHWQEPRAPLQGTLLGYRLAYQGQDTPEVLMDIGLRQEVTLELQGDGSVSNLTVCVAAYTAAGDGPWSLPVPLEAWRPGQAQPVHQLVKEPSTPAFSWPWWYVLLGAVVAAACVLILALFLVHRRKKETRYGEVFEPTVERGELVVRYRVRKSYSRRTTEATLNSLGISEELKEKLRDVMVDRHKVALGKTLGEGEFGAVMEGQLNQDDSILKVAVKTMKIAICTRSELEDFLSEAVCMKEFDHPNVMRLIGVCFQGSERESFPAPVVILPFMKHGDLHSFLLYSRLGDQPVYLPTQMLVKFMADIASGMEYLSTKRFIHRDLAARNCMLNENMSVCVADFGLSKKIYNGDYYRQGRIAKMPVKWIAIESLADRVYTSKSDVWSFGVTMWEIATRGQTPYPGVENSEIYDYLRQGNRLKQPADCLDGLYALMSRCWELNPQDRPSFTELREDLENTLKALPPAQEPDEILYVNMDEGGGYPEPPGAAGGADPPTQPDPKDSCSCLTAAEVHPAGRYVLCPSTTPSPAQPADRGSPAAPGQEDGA

Turning to `CC(=O)NS(=O)(=O)c1ccc(NC(=S)N2CCN(c3ncnc4[nH]c5cc(C(F)(F)F)c(Cl)cc5c34)CC2)cc1` [Compound 1-1, 4-(6-Chloro-7-trifluoromethyl-9H-pyrimido[4,5-b]indol-4-yl)-piperazine-1-carbothioic acid (4-acetylsulfamoyl-phenyl)-amide], the results for the pIC50 in data set [1] and in data set [2] were 4.18 and 5.01, respectively.

In the case of `COc1ccc2c(c1)[nH]c1ncnc(N3CCN(C(=S)Nc4ccc(S(=O)(=O)Nc5ccc(F)cc5)cc4)CC3)c12` [Compound 2-5, 4-(7-methoxy-9H-pyrimido[4,5-b]indol-4-yl)-N-(4-(N-(4-fluorophenyl)sulfamoyl)phenyl)piperazine-1-carbothioamide], in data set [3], the “toxicity through the duration of the study” value is recorded as “No noticeable toxicity” and the “tumor growth inhibition in vivo” value is “effective for inhibiting tumor growth in vivo”.
